Test results as given in PubChem BioAssay AID248 (DTP/NCI, 2004).
Values joined by “and” are separate entries in the source; they are usually repeats but may differ in a detail not shown here. Identical values can stand only once. Inconclusive results and toxic doses are left out. Rule as the data show it: active = T/C of 150% or more; inactive = T/C below 125%.

Tested on: L1210 leukemia ip in BDF1 mice, survival T/C
Test: NCI In Vivo Anticancer Drug Screen. Data for tumor model L1210 Leukemia (intraperitoneal) in B6D2F1 (BDF1) mice
Details: endpoint: mean survival time, higher = longer survival
Outline: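 Tumor was transplanted into mice, which were then dosed with test compound or vehicle alone. Survival was recorded for each group, and the treated figure was expressed relative to the control figure.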

[1] = dose: 100.0 mg/kg/injection, schedule: Q04DX002 (ip), vehicle: saline with Tween-80
[2] = dose: 100.0 mg/kg/injection, schedule: Q04DX003 (ip), vehicle: saline with Tween-80
[3] = dose: 200.0 mg/kg/injection, schedule: Q04DX003 (ip), vehicle: saline with Tween-80
[4] = dose: 400.0 mg/kg/injection, schedule: Q04DX003 (ip), vehicle: saline with Tween-80
[5] = dose: 25.0 mg/kg/injection, schedule: Q01DX009 (ip), vehicle: saline
[6] = dose: 50.0 mg/kg/injection, schedule: Q01DX009 (ip), vehicle: saline
[7] = dose: 100.0 mg/kg/injection, schedule: Q01DX009 (ip), vehicle: Klucel (hydroxypropylcellulose) (HPC)
[8] = dose: 100.0 mg/kg/injection, schedule: Q04DX003 (ip), vehicle: Klucel (hydroxypropylcellulose) (HPC)
[9] = dose: 200.0 mg/kg/injection, schedule: Q01DX009 (ip), vehicle: Klucel (hydroxypropylcellulose) (HPC)
[10] = dose: 200.0 mg/kg/injection, schedule: Q04DX003 (ip), vehicle: Klucel (hydroxypropylcellulose) (HPC)
[11] = dose: 400.0 mg/kg/injection, schedule: Q01DX009 (ip), vehicle: Klucel (hydroxypropylcellulose) (HPC)
[12] = dose: 400.0 mg/kg/injection, schedule: Q04DX003 (ip), vehicle: Klucel (hydroxypropylcellulose) (HPC)
[13] = dose: 100.0 mg/kg/injection, schedule: Q04DX002 (ip), vehicle: Klucel (hydroxypropylcellulose) (HPC)
[14] = dose: 200.0 mg/kg/injection, schedule: Q04DX002 (ip), vehicle: Klucel (hydroxypropylcellulose) (HPC)
[15] = dose: 400.0 mg/kg/injection, schedule: Q04DX002 (ip), vehicle: Klucel (hydroxypropylcellulose) (HPC)

Measured: T/C

CCCC(C=O)(CCN1CCCC1)c1cccc2ccccc12 (centres undefined)
inactive: dose: 25.0 mg/kg/injection, schedule: Q04DX002 (ip), vehicle: saline with Tween-80 100 % of control | dose: 50.0 mg/kg/injection, schedule: Q04DX002 (ip), vehicle: saline with Tween-80 94 % of control | [1] 88 % of control

O=C1/C(=C/c2ccccc2)CCC2CCCCC12 (centres undefined)
inactive: [2] 94 % of control | [3] 100 % of control | [4] 94 % of control

N#Cc1c(/N=C/c2cc(Cl)cc(Cl)c2O)sc2c1CCC2
inactive: [1] 95 % of control | dose: 200.0 mg/kg/injection, schedule: Q04DX002 (ip), vehicle: saline with Tween-80 113 % of control | dose: 400.0 mg/kg/injection, schedule: Q04DX002 (ip), vehicle: saline with Tween-80 91 % of control

O=c1ccnc(C(F)(F)F)[nH]1
inactive: dose: 44.0 mg/kg/injection, schedule: Q01DX Z (ip), vehicle: methylcellulose (MC) 87 % of control | dose: 66.0 mg/kg/injection, schedule: Q01DX Z (ip), vehicle: methylcellulose (MC) 96 % of control | dose: 100.0 mg/kg/injection, schedule: Q01DX Z (ip), vehicle: methylcellulose (MC) 101 % of control

CC(=O)[O][Pb]([CH2]CC(C)C)([CH2]CC(C)C)[CH2]CC(C)C
inactive: dose: 0.78 mg/kg/injection, schedule: Q01DX009 (ip), vehicle: saline with Tween-80 98 % of control | dose: 0.78 mg/kg/injection, schedule: Q04DX002 (ip), vehicle: saline with Tween-80 95 % of control | dose: 1.56 mg/kg/injection, schedule: Q01DX009 (ip), vehicle: saline with Tween-80 97 % of control | dose: 1.56 mg/kg/injection, schedule: Q04DX002 (ip), vehicle: saline with Tween-80 92 % of control | dose: 3.12 mg/kg/injection, schedule: Q01DX009 (ip), vehicle: saline with Tween-80 95 % of control | dose: 3.12 mg/kg/injection, schedule: Q04DX002 (ip), vehicle: saline with Tween-80 92 % of control

COc1ccc(C(=O)NC[n+]2ccccc2)cc1
inactive: [5] 93 % of control | dose: 25.0 mg/kg/injection, schedule: Q04DX003 (ip), vehicle: saline 86 % of control | [6] 98 % of control | dose: 50.0 mg/kg/injection, schedule: Q04DX003 (ip), vehicle: saline 93 % of control | dose: 100.0 mg/kg/injection, schedule: Q04DX003 (ip), vehicle: saline 99 % of control

CCCCCCCCC(O)CCCCC (centres undefined)
inactive: [7] 100 % of control | [8] 106 % of control | [9] 98 % of control | [10] 103 % of control | [11] 94 % of control | [12] 109 % of control

COC1=CC(=O)C=CC1=O
inactive: dose: 1.5 mg/kg/injection, schedule: Q01DX009 (ip), vehicle: saline 90 % of control | dose: 3.0 mg/kg/injection, schedule: Q01DX009 (ip), vehicle: saline 88 % of control | dose: 6.0 mg/kg/injection, schedule: Q01DX009 (ip), vehicle: saline 90 % of control

COc1ccc(CN2CCCN(Cc3ccc(OC)cc3OC)C2c2ccc(N(CCCl)CCCl)cc2C)c(OC)c1
inactive: dose: 50.0 mg/kg/injection, schedule: Q01DX001 (ip), vehicle: carboxymethylcellulose (CMC) 106 % of control | dose: 100.0 mg/kg/injection, schedule: Q01DX001 (ip), vehicle: carboxymethylcellulose (CMC) 104 % of control | dose: 200.0 mg/kg/injection, schedule: Q01DX001 (ip), vehicle: carboxymethylcellulose (CMC) 106 % of control | dose: 400.0 mg/kg/injection, schedule: Q01DX001 (ip), vehicle: carboxymethylcellulose (CMC) 112 % of control

CC1CCC(C(C)C)/C(=N/NC(=O)c2ccccc2)C1 (centres undefined)
inactive: [7] 98 % of control | [8] 104 % of control | [9] 93 % of control | [10] 102 % of control | [11] 86 % of control | [12] 102 % of control

O=C(Nc1ccccc1)C1C2C=CC(C2)C1C(=O)Nc1ccccc1 (centres undefined)
inactive: [2] 93 % of control and 103 % of control | [3] 95 % of control and 87 % of control | [4] 91 % of control

Cc1nc2c3nc(C)oc3c3ccccc3c2o1
inactive: dose: 100.0 mg/kg/injection, schedule: Q01DX001 (ip), vehicle: Klucel (hydroxypropylcellulose) (HPC) 97 % of control | dose: 200.0 mg/kg/injection, schedule: Q01DX001 (ip), vehicle: Klucel (hydroxypropylcellulose) (HPC) 89 % of control | dose: 400.0 mg/kg/injection, schedule: Q01DX001 (ip), vehicle: Klucel (hydroxypropylcellulose) (HPC) 86 % of control

NC(CCC(=O)NC(CSC(c1ccccc1)(c1ccccc1)c1ccccc1)C(=O)NCC(=O)O)C(=O)O (centres undefined)
inactive: [5] 109 % of control | [6] 104 % of control and 114 % of control | dose: 100.0 mg/kg/injection, schedule: Q01DX009 (ip), vehicle: saline 107 % of control and 113 % of control | dose: 200.0 mg/kg/injection, schedule: Q01DX009 (ip), vehicle: saline 124 % of control | dose: 300.0 mg/kg/injection, schedule: Q01DX009 (ip), vehicle: saline 90 % of control

Cc1ccc(CS(=O)C(Cl)(Cl)c2ccc(C)cc2)cc1 (centres undefined)
inactive: [13] 97 % of control | [14] 94 % of control | [15] 97 % of control

CCCN(CCC)CCSC(=S)NCCOC
inactive: dose: 4.0 mg/kg/injection, schedule: Q01DX001 (sc), vehicle: olive oil, sesame oil, peanut oil 110 % of control | dose: 8.0 mg/kg/injection, schedule: Q01DX001 (sc), vehicle: olive oil, sesame oil, peanut oil 112 % of control | dose: 16.0 mg/kg/injection, schedule: Q01DX001 (sc), vehicle: olive oil, sesame oil, peanut oil 116 % of control | dose: 32.0 mg/kg/injection, schedule: Q01DX001 (sc), vehicle: olive oil, sesame oil, peanut oil 118 % of control | dose: 50.0 mg/kg/injection, schedule: Q01DX001 (ip), vehicle: olive oil, sesame oil, peanut oil 96 % of control | dose: 50.0 mg/kg/injection, schedule: Q01DX009 (ip), vehicle: acetone 93 % of control | dose: 100.0 mg/kg/injection, schedule: Q01DX001 (ip), vehicle: acetone 110 % of control | dose: 100.0 mg/kg/injection, schedule: Q01DX001 (ip), vehicle: olive oil, sesame oil, peanut oil 92 % of control | dose: 100.0 mg/kg/injection, schedule: Q01DX009 (ip), vehicle: acetone 101 % of control | dose: 200.0 mg/kg/injection, schedule: Q01DX001 (ip), vehicle: acetone 104 % of control | dose: 200.0 mg/kg/injection, schedule: Q01DX001 (ip), vehicle: olive oil, sesame oil, peanut oil 103 % of control | dose: 400.0 mg/kg/injection, schedule: Q01DX001 (ip), vehicle: olive oil, sesame oil, peanut oil 88 % of control

CCN(CC)CCCC(C)NC(=O)c1ccc(N(C)C)nc1 (centres undefined)
inactive: dose: 25.0 mg/kg/injection, schedule: Q01DX009 (ip), vehicle: water 97 % of control | dose: 50.0 mg/kg/injection, schedule: Q01DX009 (ip), vehicle: water 104 % of control | dose: 100.0 mg/kg/injection, schedule: Q01DX009 (ip), vehicle: water 101 % of control | dose: 200.0 mg/kg/injection, schedule: Q01DX009 (ip), vehicle: water 104 % of control | dose: 400.0 mg/kg/injection, schedule: Q01DX009 (ip), vehicle: water 101 % of control

O=C1OC(c2cccc(Cl)c2)=N/C1=C\c1cccc2ccccc12
inactive: [7] 90 % of control | [9] 90 % of control | [11] 96 % of control

C[Si](C)(C#CC1(O)CCCCC1)C(Cl)Cl
inactive: [8] 102 % of control | [10] 101 % of control | [12] 109 % of control

C=C(C)COc1c(C)cc(C)cc1C=Nc1ccccc1
inactive: [2] 109 % of control | [3] 106 % of control | [4] 105 % of control

c1ccc(-c2nc(N=C3N=c4ccccc4=N3)[nH]c2-c2ccccc2)cc1
inactive: [8] 112 % of control | [10] 100 % of control | [12] 96 % of control

CCOC(=O)CNc1ccc(F)c(Cl)c1
inactive: [13] 106 % of control and 108 % of control | [14] 98 % of control and 112 % of control | [15] 102 % of control | dose: 600.0 mg/kg/injection, schedule: Q04DX002 (ip), vehicle: Klucel (hydroxypropylcellulose) (HPC) 98 % of control
